# Laboratory results taken from patent publication US5336684A, “Oxidation products of cephalomannine” (Hauser Chemical Research, Inc., priority 1993, dated 1994).
# Where “and” joins values, the source holds several entries; their conditions need not be identical. Identical values can stand only once. Like-named read-outs stand apart in the source and are kept apart here.
# What was measured:
# [1] = system: Tubulin; assay: Tubulin Assembly; format: biochemical, bovine; settings: for Tubulin Assembly ED50/ED50 Taxol: ratio to taxol, <1 indicates greater activity than taxol; for Tubulin Assembly ED50 (concentration which reduces the supernatant protein concentration by 50%): tubulin 1 mg/ml, 37° C., 15 minutes, PEM buffer pH 6.9
# Excerpt: (§1) Tubulin binding and cytotoxicity data for cephalomannine and the synthetic derivatives described herein are included for comparison. The tubulin testing was done exactly as described by Himes (Georg, G. I., et al., "Synthesis of Biologically Active Taxol Analogues with Modified Phenylisoserine Side Chains", J. Med. Chem. Vol 35:4230, (1992)), incorporated herein by reference. Taxol has been included in Table 1 for reference. […] A number less than 1 in these columns indicates greater activity than taxol. A number greater than 1 in these columns indicates lower activity than taxol. The error in the tests appears to be ±10-20%. […] These tests have been used and relied upon by experimentalists in this field to determine the potential efficacy of a taxol derivative for the treatment of cancer.
# Tubulin free of microtubule-associated proteins was purified from bovine brain as previously described (Algaier, J., Himes, R. H., "The Effect of Dimethyl Sulfoxide on the Kinetics of Tubulin Assembly" Biochim. Biophys. Acta, Vol 954, pp 235-243, 1988). The assembly reaction was done at 37° C. in PEM buffer (0.1M Pipes, pH 6.9, 1 mM EGTA, and 1 mM MgSO4) at a protein concentration of 1 mg/ml (10 μM) in the presence of taxol or taxol analogues and 0.5 mM GTP. The reaction was monitored by the increase in the apparent absorbance at 350 nm.
# ^b Tubulin at 1 mg/ml was incubated with various concentrations of th
# compounds at 37° C. for 15 minutes in 0.5 ml of PEM buffer (0.1 M
# Pipes, 1 mM EGTA, 1 mM MgSO4, pH 6.9). Samples were centrifuged and
# the protein concentration on the supernatant was determined.
# ^d The concentration in ng/ml which reduces the supernatant protein
# [2] = system: tubulin; settings: Schiff et al. 1979; cited from earlier work
# [3] = system: cell; settings: when delivered to the cell; cited from earlier work
# [4] = system: B16 Melanoma cells; assay: cells; format: cell-based; settings: for IC50: Mus musculus; for B16 Proliferation ED50/ED50 Taxol: ratio to taxol, <1 indicates greater activity than taxol
# Excerpt: as §1
# Cells were seeded in 24-well plates at 7.5×10^4 cells/well and grown in Dulbecco's modified minimal essential medium (MEM) containing 10% bovine calf serum at 37° C. for 24 hours in a 97% humidified atmosphere of 5.5% CO2. The medium was then replaced with fresh medium containing taxol or its derivatives and dissolved in DMSO in concentrations ranging from 7.5×10^-9 M to 1×10^-7 M for taxol and other derivatives. The final concentration of DMSO in the cell medium was 0.5% or less. […] After 40 hours, the cells were released by trypsinization and counted in a Coulter counter.
# ^c B16 Melanoma cells were incubated with various concentrations of
# the compounds for about 40h at 37° C.
# ^e The concentration in ng/ml which reduces the number of cells by 50
# [5] = system: taxol resistant tumor cells; settings: compared with taxol; cited from earlier work
# [6] = system: P388 murine leukemia cells; settings: compared with taxol; cited from earlier work
# [7] = system: mouse macrophage-like J774.2 cells; settings: compared with taxol; cited from earlier work
# [8] = system: tubulin; settings: compared with taxol, cited from earlier work
# [9] = B16, 40 h, B16 melanoma cells, about 40h at 37° C., read-out: B16 Proliferation ED50 (concentration which reduces the number of cells by 50% compared to a control)
smiles,measurement,setting,value
"CC(=O)O[C@H]1C(=O)[C@@]2(C)[C@H]([C@H](OC(=O)c3ccccc3)[C@]3(O)C[C@H](OC(=O)[C@H](O)[C@@H](NC(=O)c4ccccc4)c4ccccc4)C(C)=C1C3(C)C)[C@]1(OC(C)=O)CO[C@@H]1C[C@@H]2O [Compound 1, taxol, reference compound]",Tubulin Assembly ED50/ED50 Taxol,[1],1.26
same,Tubulin Assembly ED50/ED50 Taxol,[1]; listed as taxol,approximately 1
same,ED50 for taxol in the assembly assay,"[1]; taxol reference value for the ratios (footnotes g, h, i), 15 min",0.854 mg/L and 0.97 mg/L and 0.85 mg/L
same,tubulin binding,[2],significant tubulin binding
same,cytotoxic activity,[3],cytotoxic activity
same,IC50,[4]; [9],0.0214 mg/L
same,IC50,"[4]; B16, 40 h, taxol reference value for the ratios (footnotes g, h, i), read-out: ED50 for taxol in the B16 assay",0.0225 mg/L
same,B16 Proliferation ED50/ED50 Taxol,[4],0.95
same,ED50 for taxol in the B16 assay,"[4]; taxol reference value for the ratios (footnotes g, h, i), 2400 min",0.0227 mg/L
"CC(=O)O[C@@]12CO[C@@H]1C[C@H](O)[C@@]1(C)C(=O)[C@H](O)C3=C(C)[C@@H](OC(=O)[C@H](O)[C@@H](NC(=O)OC(C)(C)C)c4ccccc4)C[C@@](O)([C@@H](OC(=O)c4ccccc4)[C@H]21)C3(C)C [Compound 2, taxotere]",potency in taxol resistant tumor cells vs taxol,[5],at least fivefold more potent
same,"potency as an inhibitor of replication vs taxol, P388 cells",[6],1.5 fold
same,"potency as an inhibitor of replication vs taxol, J774.2 cells",[7],1.5 fold
same,activity as a promoter of tubulin polymerization vs taxol,[8],slightly more active
same,in vitro tubulin binding activity of taxotere,[8]; in vitro,enhanced in vitro tubulin binding activity
"C/C=C(\C)C(=O)N[C@@H](c1ccccc1)[C@@H](O)C(=O)O[C@H]1C[C@@]2(O)[C@@H](OC(=O)c3ccccc3)[C@@H]3[C@]4(OC(C)=O)CO[C@@H]4C[C@H](O)[C@@]3(C)C(=O)[C@H](OC(C)=O)C(=C1C)C2(C)C [Compound 3, cephalomannine]",Tubulin Assembly ED50/ED50 Taxol,[1],0.82
same,IC50,"[4]; B16, 40 h, read-out: B16 Proliferation ED50 (concentration which reduces the number of cells by 50% compared to a control)",0.0335 mg/L
same,B16 Proliferation ED50/ED50 Taxol,[4],1.49
CC(=O)O[C@H]1C(=O)[C@@]2(C)[C@H]([C@H](OC(=O)c3ccccc3)[C@]3(O)C[C@H](OC(=O)[C@H](O)[C@@H](NC(=O)C(C)=O)c4ccccc4)C(C)=C1C3(C)C)[C@]1(OC(C)=O)CO[C@@H]1C[C@@H]2O [Compound 4ab],activity in the in vitro tubulin assembly test relative to taxol,[1]; compared to taxol,comparable to or superior to taxol
same,tubulin binding activity,[1]; in vitro testing,good
same,Tubulin Assembly ED50/ED50 Taxol,[1],1.46
same,Tubulin Assembly ED50 (concentration which reduces the supernatant protein concentration by 50%),[1],1.24 mg/L
same,IC50,[4]; [9],0.0171 mg/L
same,activity in the B16 Proliferation test relative to taxol,[4]; compared to taxol,comparable to or superior to taxol
same,cytotoxicity activity,[4]; in vitro testing,good
same,B16 Proliferation ED50/ED50 Taxol,[4],0.75
"CC(=O)O[C@H]1C(=O)[C@@]2(C)[C@H]([C@H](OC(=O)c3ccccc3)[C@]3(O)C[C@H](OC(=O)[C@H](OC(C)=O)[C@@H](NC(=O)C(C)=O)c4ccccc4)C(C)=C1C3(C)C)[C@]1(OC(C)=O)CO[C@@H]1C[C@@H]2O [Compound 5, 240 -Acetyl-α-ketoamide]",Tubulin Assembly ED50/ED50 Taxol,[1],> 10
same,Tubulin Assembly ED50 (concentration which reduces the supernatant protein concentration by 50%),[1],> 8.54 mg/L
same,IC50,"[4]; B16 melanoma cells, about 40h at 37° C., read-out: B16 Proliferation ED50 (concentration which reduces the number of cells by 50% compared to a control)",> 0.854 mg/L
same,B16 Proliferation ED50/ED50 Taxol,[4],> 38
"CC(=O)O[C@H]1C(=O)[C@]2(C)[C@@H](OC(C)=O)C[C@H]3OC[C@@]3(OC(C)=O)[C@H]2[C@H](OC(=O)c2ccccc2)[C@]2(O)C[C@H](OC(=O)[C@H](OC(C)=O)[C@@H](NC(=O)C(C)=O)c3ccccc3)C(C)=C1C2(C)C [Compound 6, 2',7-bis(acetyl)-α-ketoamide]",Tubulin Assembly ED50/ED50 Taxol,[1],> 10
same,Tubulin Assembly ED50 (concentration which reduces the supernatant protein concentration by 50%),[1],> 8.54 mg/L
same,IC50,[4]; [9],> 0.854 mg/L
same,B16 Proliferation ED50/ED50 Taxol,[4],> 38
"CC[Si](CC)(CC)O[C@H]1C[C@H]2OC[C@@]2(OC(C)=O)[C@H]2[C@H](OC(=O)c3ccccc3)[C@]3(O)C[C@H](OC(=O)[C@H](O[Si](CC)(CC)CC)[C@@H](NC(=O)C(C)=O)c4ccccc4)C(C)=C([C@@H](OC(C)=O)C(=O)[C@]12C)C3(C)C [Compound 7, 2',7-Bis(triethylsilyl)-α-ketoamide]",Tubulin Assembly ED50/ED50 Taxol,[1],> 10
same,Tubulin Assembly ED50 (concentration which reduces the supernatant protein concentration by 50%),[1],> 8.54 mg/L
same,IC50,[4]; [9],> 8.54 mg/L
same,B16 Proliferation ED50/ED50 Taxol,[4],> 380
"CC(=O)O[C@H]1C(=O)[C@@]2(C)[C@H]([C@H](OC(=O)c3ccccc3)[C@]3(O)C[C@H](OC(=O)[C@H](O)[C@@H](NC(=O)C(C)(O)C(C)O)c4ccccc4)C(C)=C1C3(C)C)[C@]1(OC(C)=O)CO[C@@H]1C[C@@H]2O (some centres unmarked) [Compound 8, Cephalomannine diol]",Tubulin Assembly ED50/ED50 Taxol,[1],3.4
same,Tubulin Assembly ED50 (concentration which reduces the supernatant protein concentration by 50%),[1],3.3 mg/L
same,IC50,[4]; [9],> 0.854 mg/L
same,B16 Proliferation ED50/ED50 Taxol,[4],> 38
